Test results from ChEMBL document CHEMBL1135216, “New 2-(1-adamantylcarbonyl)pyridine and 1-acetyladamantane thiosemicarbazones-thiocarbonohydrazones: cell growth inhibitory, antiviral and antimicrobial activity evaluation” (Bioorg Med Chem Lett, 2002).
Converted amounts (≈) assume the structure as drawn.

Key:
[1] = test system: CCRF-CEM; experiment: Tested for the inhibitory concentration against cell growth of human leukemic cell line CCRF-CEM; assay type: functional
[2] = test system: CCRF-CEM; experiment: Tested for the concentration required to reduce the viability of leukemia cells by 50% against cell growth of T cell leukemia cell line CCRF-CEM using MTT assay; assay type: functional; conditions: Homo sapiens
[3] = test system: CCRF-CEM; experiment: Tested for the inhibitory concentration against cell growth of Tcell leukemic cell line CCRF-CEM using MTT assay; assay type: functional; conditions: Homo sapiens
[4] = test system: E6SM; experiment: Tested for antiviral activity against VSV-virus in human embryonic skin muscle fibroblasts; assay type: functional; conditions: Muscle tissue
[5] = test system: E6SM; experiment: Tested for antiviral activity against herpes simplex virus type 1(KOS) in E6SM cell line(human embryonic skin-muscle fibroblasts); assay type: functional
[6] = test system: E6SM; experiment: Tested for antiviral activity against thymidine kinase-deficient (TK-HSV-2G) virus in E6SM cell line(human embryonic skin-muscle fibroblasts); assay type: functional
[7] = test system: E6SM; experiment: Tested for antiviral activity against vaccinia virus in human embryonic skin muscle fibroblast; assay type: functional; conditions: Muscle tissue
[8] = test system: HeLa; experiment: (§1) The compound was tested for antiviral activity against VSV-virus in human epithelial cells; assay type: functional
[9] = test system: E6SM; experiment: Tested for cytotoxic activity in human embryonic skin muscle fibroblast (E6SM); assay type: functional; conditions: Muscle tissue
[10] = test system: E6SM; experiment: Antiviral activity against thymidine kinase-deficient (TK-HSV-1)virus in E6SM cell line(human embryonic skin-muscle fibroblasts); assay type: functional
[11] = test system: Escherichia coli; experiment: Tested for the antimicrobial activity against Escherichia coli ATCC 25922; assay type: functional
[12] = test system: HEL; experiment: Tested for cytotoxic activity in human embryonic lung fibroblast (HEL); assay type: functional
[13] = test system: HEL; experiment: Tested for antiviral activity against human cytomegalovirus (AD-169) in human embryonic lung fibroblasts; assay type: functional
[14] = test system: HEL; experiment: Tested for antiviral activity against thymidine kinase deficient Varicella zoster virus in human embryonic lung fibroblasts; assay type: functional
[15] = test system: HEL; experiment: Tested for antiviral activity against thymidine kinase wild type Varicella zoster virus in human embryonic lung fibroblast; assay type: functional
[16] = test system: HeLa; experiment: Tested for antiviral activity against coxsackie-B4 virus in human epithelial cell line; assay type: functional
[17] = test system: HL-60; experiment: Tested for the inhibitory concentration against cell growth of human leukemic cell line HL60; assay type: functional
[18] = test system: HL-60; experiment: Tested for the concentration required to reduce the viability of leukemia cells by 50% against cell growth of HL60 acute myeloid leukemia using MTT assay; assay type: functional; conditions: Homo sapiens, read-out: LC50 (the source's name)
[19] = test system: HL-60; experiment: Tested for the inhibitory concentration against cell growth of HL60 acute myeloid leukemia using MTT assay; assay type: functional; conditions: Homo sapiens
[20] = test system: HeLa; experiment: Tested for cytotoxic activity in human epithelial cell line (HeLa); assay type: functional
[21] = test system: HuT78; experiment: Tested for the inhibitory concentration against cell growth of human leukemic cell line HuT78; assay type: functional
[22] = test system: HuT78; experiment: Tested for the concentration required to reduce the viability of leukemia cells by 50% against cell growth of HuT78 T lymphoma using MTT assay; assay type: functional; conditions: Homo sapiens
[23] = test system: HuT78; experiment: Tested for the inhibitory concentration against cell growth of HuT78 T lymphoma using MTT assay; assay type: functional; conditions: Homo sapiens
[24] = test system: K562; experiment: Tested for the concentration required to reduce the viability of leukemia cells by 50% against cell growth of K562 chronic myeloid leukemia using MTT assay; assay type: functional; conditions: Homo sapiens, read-out: LC50 (the source's name)
[25] = test system: K562; experiment: Tested for the inhibitory concentration against cell growth of K562 chronic myeloid leukemia using MTT assay; assay type: functional; conditions: Homo sapiens
[26] = test system: K562; experiment: Tested for the inhibitory concentration against cell growth of human leukemic cell line K562; assay type: functional
[27] = test system: Klebsiella pneumoniae; experiment: Tested for the antimicrobial activity against Klebsiella pneumoniae ATCC 13883; assay type: functional
[28] = test system: MOLT-4; experiment: Tested for the inhibitory concentration against cell growth of human leukemic cell line MOLT-4; assay type: functional
[29] = test system: MT4; experiment: Tested for effective concentration required to protect MT-4 cells against the cytopathicity of HIV-1(IIIB); assay type: functional; conditions: Homo sapiens, read-out: LC50 (the source's name)
[30] = test system: MT4; experiment: Tested for effective concentration required to protect MT-4 cells against the cytopathicity of HIV-2(ROD); assay type: functional, cell-based; conditions: Homo sapiens
[31] = test system: MOLT-4; experiment: Tested for the concentration required to reduce the viability of leukemia cells by 50% against cell growth of T cell leukemia cell line MOLT-4 using MTT assay; assay type: functional; conditions: Homo sapiens
[32] = test system: MOLT-4; experiment: Tested for the inhibitory concentration against cell growth of Tcell leukemic cell line MOLT-4 using MTT assay; assay type: functional; conditions: Homo sapiens
[33] = test system: RPMI-8226; experiment: Tested for the inhibitory concentration against cell growth of human leukemic cell line RPMI8226; assay type: functional
[34] = test system: RPMI-8226; experiment: Tested for the concentration required to reduce the viability of leukemia cells by 50% against cell growth of RPMI8226 multiple myeloma using MTT assay; assay type: functional; conditions: Homo sapiens, read-out: LC50 (the source's name)
[35] = test system: RPMI-8226; experiment: Tested for the inhibitory concentration against cell growth of […] multiple myeloma using MTT assay; assay type: functional; conditions: Homo sapiens
[36] = test system: Staphylococcus aureus; experiment: Tested for the antimicrobial activity against Staphylococcus aureus ATCC 6538; assay type: functional
[37] = test system: Staphylococcus epidermidis; experiment: Tested for the antimicrobial activity against Staphylococcus epidermidis ATCC 12228; assay type: functional
[38] = test system: Staphylococcus hominis; experiment: Tested for the antimicrobial activity against Staphylococcus hominis ATCC 27844; assay type: functional
[39] = test system: Vero; experiment: Tested for cytotoxic activity in African green monkey kidney cells (Vero); assay type: functional; conditions: Chlorocebus sabaeus
[40] = test system: Vero; experiment: Tested for antiviral activity against Punta toro virus in African green monkey kidney cell (Vero); assay type: functional; conditions: Chlorocebus sabaeus
[41] = test system: Vero; experiment: Tested for antiviral activity against Reo-1 virus in African green monkey kidney cell (Vero); assay type: functional; conditions: Chlorocebus sabaeus
[42] = test system: Vero; experiment: Tested for antiviral activity against Sindbis virus in African green monkey kidney cell (Vero); assay type: functional; conditions: Chlorocebus sabaeus
[43] = test system: Vero; experiment: Tested for antiviral activity against coxsackie B-4 virus in African green monkey kidney cell (Vero); assay type: functional; conditions: Chlorocebus sabaeus
[44] = test system: Vero; experiment: Tested for antiviral activity against parainfluenza virus in african green monkey kidney cell (Vero); assay type: functional; conditions: Chlorocebus sabaeus
[45] = test system: MT4; experiment: Tested for cytotoxic concentration required to reduce the viability of MT-4 cells by 50%; assay type: functional, cell-based; conditions: Homo sapiens, read-out: EC50 (the source's name)
[46] = test system: E6SM; experiment: as §1; assay type: functional
[47] = test system: E6SM; experiment: Tested for antiviral activity against thymidine kinase-deficient (TK-HSV-2G) virus in E6SM cell line(human embryonic skin-muscle fibroblasts)
[48] = test system: E6SM; experiment: The compound was tested for antiviral activity against thymidine kinase-deficient (TK-HSV-1)virus in E6SM cell line(human embryonic skin-muscle fibroblasts); assay type: functional

C/C(=N/N=C(/S)NN)C12CC3CC(CC(C3)C1)C2
GI50 [1]: 36.8 µM | TGI [2]: 100 µM | TGI [3]: 100 µM | MIC [4]: > 16 µg/mL | MIC [5]: > 16 µM | MIC [6]: > 16 µg/mL | MIC [7]: > 16 µg/mL | MIC [8]: > 16 µg/mL | MCC [9]: > 80 µg/mL | MIC [10]: > 16 µg/mL | MIC [11]: > 3760 µg/mL | MCC [12]: > 20 µg/mL | MIC [13]: > 5 µg/mL | MIC [14]: > 20 µg/mL | MIC [15]: 10.5 µg/mL (≈ 39.4 µM) | MIC [16]: > 16 µg/mL | GI50 [17]: 48.7 µM | CC50 [18]: 100 µM | TGI [19]: 92 µM | MCC [20]: 80 µg/mL | GI50 [21]: 20.5 µM | TGI [22]: 100 µM | TGI [23]: 100 µM | CC50 [24]: 100 µM | TGI [25]: 68.4 µM | GI50 [26]: 14.7 µM | MIC [27]: > 3760 µg/mL | GI50 [28]: 22.2 µM | EC50 [29]: > 7 µM | EC50 [30]: > 7 µM | TGI [31]: 100 µM | TGI [32]: 100 µM | GI50 [33]: 94.2 µM | CC50 [34]: 100 µM | TGI [35]: 100 µM | MIC [36]: > 3760 µg/mL | MIC [37]: > 3760 µg/mL | MIC [38]: > 3760 µg/mL | MCC [39]: 80 µg/mL | MIC [40]: > 80 µg/mL | MIC [41]: > 80 µg/mL | MIC [42]: > 80 µg/mL | MIC [43]: > 80 µg/mL | MIC [44]: > 80 µg/mL | CC50 [45]: 7.1 µM

C/C(=N/N=C(\N)S)C12CC3CC(CC(C3)C1)C2
GI50 [1]: 23.6 µM | TGI [2]: 86.7 µM | TGI [3]: 55.2 µM | MIC [4]: > 400 µg/mL | MIC [5]: 240 µg/mL | MIC [7]: > 400 µg/mL | MIC [46]: 240 µg/mL (≈ 955 µM) | MCC [9]: > 400 µg/mL | MIC [10]: > 400 µg/mL | MIC [11]: > 3980 µg/mL | MCC [12]: 5 µg/mL | MIC [13]: > 2 µg/mL | MIC [14]: > 2 µg/mL | MIC [15]: > 2 µg/mL | MIC [16]: > 80 µg/mL | GI50 [17]: 5.2 µM | CC50 [18]: 63.6 µM | TGI [19]: 24.1 µM | MCC [20]: 400 µg/mL | GI50 [21]: 2.3 µM | TGI [22]: 83.1 µM | TGI [23]: 29.1 µM | CC50 [24]: 62.6 µM | TGI [25]: 10.4 µM | GI50 [26]: 2.8 µM | MIC [27]: > 3980 µg/mL | GI50 [28]: 2.3 µM | EC50 [29]: > 8 µM | EC50 [30]: > 8 µM | TGI [31]: 59.4 µM | TGI [32]: 9.3 µM | GI50 [33]: 7.1 µM | CC50 [34]: 69.2 µM | TGI [35]: 33.3 µM | MIC [36]: > 3980 µg/mL | MIC [37]: > 3980 µg/mL | MIC [38]: > 3980 µg/mL | MCC [39]: 400 µg/mL | MIC [40]: > 80 µg/mL | MIC [41]: > 80 µg/mL | MIC [42]: > 80 µg/mL | MIC [43]: > 80 µg/mL | MIC [44]: > 80 µg/mL | CC50 [45]: 7.5 µM | MIC [47]: > 80 µg/mL

O=c1[nH]c(=O)n([C@H]2C[C@H](O)[C@@H](CO)O2)cc1/C=C/Br [BRIVUDINE]
MIC [4]: > 400 µg/mL | MIC [5]: 0.05 µg/mL | MIC [6]: 80 µg/mL (≈ 240 µM) | MIC [7]: 3.2 µg/mL (≈ 9.61 µM) | MIC [8]: > 400 µg/mL | MIC [48]: 400 µg/mL (≈ 1200 µM) | MCC [9]: > 400 µg/mL | MCC [12]: > 50 µg/mL | MIC [14]: > 50 µg/mL | MIC [15]: 0.009 µg/mL (≈ 0.027 µM) | MIC [16]: > 400 µg/mL | MCC [20]: > 400 µg/mL | MCC [39]: > 400 µg/mL | MIC [40]: > 400 µg/mL | MIC [41]: > 400 µg/mL | MIC [42]: > 400 µg/mL | MIC [43]: > 400 µg/mL | MIC [44]: > 400 µg/mL

Nc1nc2c(ncn2COC(CO)CO)c(=O)[nH]1 [GANCICLOVIR]
MIC [4]: 9.6 µg/mL (≈ 37.6 µM) | MIC [5]: 0.0064 µg/mL | MIC [6]: 0.019 µg/mL (≈ 0.0744 µM) | MIC [7]: > 100 µg/mL | MIC [48]: 9.6 µg/mL (≈ 37.6 µM) | MCC [9]: > 100 µg/mL | MCC [12]: > 50 µg/mL | MIC [13]: 2 µg/mL (≈ 7.84 µM)
